For 4 cell lines, relative viability results are on record in the supplement of paper PMC10307832.

Assay in all cases: relative viability (nuclei count vs DMSO), 5 days (fraction); higher = more cells survive
Compound in assay [1]: C1/C(=C\C2=CC=CS2)/C(=O)/C(=C/C3=CC=CS3)/C1 + CS(=O)(=O)N1CCN(Cc2cc3nc(-c4cccc5[nH]ncc45)nc(N4CCOCC4)c3s2)CC1 [Pictilisib] (partner 1 µM)
In short, it runs like this:
(§1)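 Relative viability equals treated-well nuclei counts divided by vehicle-well nuclei counts. Counts came from 4× images of lung cancer cell lines grown in 1536-well plates for 5 days after pin-tool dosing on the day after seeding. Dosing used one drug alone or a fixed anchor-drug dose plus five library-drug doses (not always all listed) in √10 steps, and values are medians of duplicate plates.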

Compound in assay [2]: C[C@]12O[C@H](C[C@]1(O)CO)n1c3ccccc3c3c4c(c5c6ccccc6n2c5c31)CNC4=O [Lestaurtinib] + CC(=O)Nc1cccc(-n2c(=O)n(C3CC3)c(=O)c3c(Nc4ccc(I)cc4F)n(C)c(=O)c(C)c32)c1 [Trametinib] (partner 0.02 µM)
In short, it runs like this: as §1

Compound in assay [3]: C[C@]12O[C@H](C[C@]1(O)CO)n1c3ccccc3c3c4c(c5c6ccccc6n2c5c31)CNC4=O [Lestaurtinib] + CC(=O)c1c(C)c2cnc(Nc3ccc(N4CCNCC4)cn3)nc2n(C2CCCC2)c1=O [Palbociclib] (partner 0.5 µM)
In short, it runs like this: as §1

Compound in the assay “Lestaurtinib + AZD7762”: C[C@]12O[C@H](C[C@]1(O)CO)n1c3ccccc3c3c4c(c5c6ccccc6n2c5c31)CNC4=O [Lestaurtinib] + NC(=O)Nc1cc(-c2cccc(F)c2)sc1C(=O)N[C@H]1CCCNC1 [AZD7762] (partner 0.2 µM)
The essentials: as §1

For NCI-H650, the relative viability in assay [1] (first compound 0.2 µM) is 0.998; in assay [1] (first compound 0.6325 µM), 0.801; in assay [1] (first compound 2 µM) it was 0.834; in assay [1] (first compound 6.325 µM), 0.821; in assay [1] (first compound 20 µM), 0.938; in assay [2] (first compound 0.005 µM) it was 0.88. The relative viability in assay [2] (first compound 0.01581 µM) stood at 1.03; in assay [2] (first compound 0.05 µM), 0.886; in assay [2] (first compound 0.1581 µM) it was 0.522; in assay [2] (first compound 0.5 µM), 0.34; in assay [3] (first compound 0.005 µM) it was 0.315; in assay [3] (first compound 0.01581 µM), 0.323. In addition, the relative viability in assay [3] (first compound 0.05 µM) stood at 0.249; in assay [3] (first compound 0.1581 µM), 0.236; in assay [3] (first compound 0.5 µM) it was 0.229; with Lestaurtinib + AZD7762 (first compound 0.005 µM), 0.939; with Lestaurtinib + AZD7762 (first compound 0.01581 µM) it was 1.07; in the assay with Lestaurtinib + AZD7762 (first compound 0.05 µM), 0.706. Also, the values for the relative viability in the assay with Lestaurtinib + AZD7762 (first compound 0.1581 µM) and in the assay with Lestaurtinib + AZD7762 (first compound 0.5 µM) were 0.687 and 0.302, respectively.
On to NCI-H727, for which the relative viability came to 0.328 in assay [1] (first compound 0.2 µM); 0.419 in assay [1] (first compound 0.6325 µM); 0.609 in assay [1] (first compound 2 µM); 0.21 in assay [1] (first compound 6.325 µM); 0.455 in assay [1] (first compound 20 µM); 0.375 in assay [2] (first compound 0.005 µM). Further, the relative viability in assay [2] (first compound 0.01581 µM) was 0.452; in assay [2] (first compound 0.05 µM), 0.423; in assay [2] (first compound 0.5 µM) it was 0.405; in assay [3] (first compound 0.005 µM), 0.723; in assay [3] (first compound 0.01581 µM), 0.713; in assay [3] (first compound 0.05 µM), 0.719. Also, the relative viability in assay [3] (first compound 0.5 µM) was found to be 0.716; in the assay with Lestaurtinib + AZD7762 (first compound 0.005 µM), 0.564; with Lestaurtinib + AZD7762 (first compound 0.01581 µM), 0.633; with Lestaurtinib + AZD7762 (first compound 0.05 µM) it was 0.522; in the assay with Lestaurtinib + AZD7762 (first compound 0.5 µM) it was 0.452.
For NCI-H838, the relative viability in assay [1] (first compound 0.2 µM) was found to be 0.456; in assay [1] (first compound 0.6325 µM), 0.511; in assay [1] (first compound 2 µM), 0.416; in assay [1] (first compound 6.325 µM) it was 0.413; in assay [1] (first compound 20 µM) it was 0.436; in assay [2] (first compound 0.005 µM), 0.559. In addition, the relative viability in assay [2] (first compound 0.01581 µM) turned out to be 0.497; in assay [2] (first compound 0.05 µM), 0.486; in assay [2] (first compound 0.1581 µM) it was 0.333; in assay [2] (first compound 0.5 µM), 0.0966; in assay [3] (first compound 0.005 µM), 0.209; in assay [3] (first compound 0.01581 µM) it was 0.204. Moreover, the relative viability worked out at 0.196 in assay [3] (first compound 0.05 µM); 0.194 in assay [3] (first compound 0.1581 µM); 0.147 in assay [3] (first compound 0.5 µM); 1.01 in the assay with Lestaurtinib + AZD7762 (first compound 0.005 µM); 0.951 in the assay with Lestaurtinib + AZD7762 (first compound 0.01581 µM); 0.933 in the assay with Lestaurtinib + AZD7762 (first compound 0.05 µM). In addition, the figures for the relative viability in the assay with Lestaurtinib + AZD7762 (first compound 0.1581 µM) and with Lestaurtinib + AZD7762 (first compound 0.5 µM) were 0.873 and 0.681, respectively.
As for NCI-H1355, the relative viability stood at 0.519 in assay [1] (first compound 0.2 µM); 0.401 in assay [1] (first compound 0.6325 µM); 0.411 in assay [1] (first compound 2 µM); 0.391 in assay [1] (first compound 6.325 µM); 0.474 in assay [1] (first compound 20 µM); 0.481 in assay [2] (first compound 0.005 µM). Besides, the relative viability in assay [2] (first compound 0.01581 µM) came to 0.435; in assay [2] (first compound 0.05 µM), 0.359; in assay [2] (first compound 0.1581 µM), 0.318; in assay [2] (first compound 0.5 µM) it was 0.285; in assay [3] (first compound 0.005 µM) it was 0.455; in assay [3] (first compound 0.01581 µM) it was 0.403. Also, the relative viability in assay [3] (first compound 0.05 µM) amounted to 0.332; in assay [3] (first compound 0.1581 µM), 0.273; in assay [3] (first compound 0.5 µM), 0.254; in the assay with Lestaurtinib + AZD7762 (first compound 0.005 µM), 0.839; with Lestaurtinib + AZD7762 (first compound 0.01581 µM) it was 0.815; in the assay with Lestaurtinib + AZD7762 (first compound 0.05 µM), 0.574. The relative viability worked out at 0.54 with Lestaurtinib + AZD7762 (first compound 0.1581 µM) and 0.422 with Lestaurtinib + AZD7762 (first compound 0.5 µM).
